Reference: the NIST ThermoML archive (doi:10.1021/acs.jced.8b00153)
Values joined by “and” are separate entries in the source; they are usually repeats but may differ in a detail not shown here. Equal values may be shown once.

Details: for speed of sound / mass density / vapor or sublimation pressure / viscosity: Liquid; for speed of sound: Frequency=3 MHz, Single path-length method; for mass density: Vibrating tube method; for vapor or sublimation pressure: Ebulliometric method (Recirculating still); for surface tension liquid-gas: Drop volume; for viscosity: Capillary tube (Ostwald / Ubbelohde) method

CCc1cccs1 [2-ethylthiophene]
Details	mass density	speed of sound [m/s]	viscosity [mPa·s]
313.15 K, 100 kPa	973.34 kg/m3 and 973.3 kg/m3	1237.7	–
313.15 K, 2000 kPa	975 kg/m3	–	–
313.15 K, 5000 kPa	977.54 kg/m3	–	–
313.15 K, 7000 kPa	979.22 kg/m3	–	–
313.15 K, 10000 kPa	981.68 kg/m3	–	–
313.15 K, 15000 kPa	985.61 kg/m3	–	–
313.15 K, 20000 kPa	989.42 kg/m3	–	–
313.15 K, 25000 kPa	993.09 kg/m3	–	–
313.15 K, 30000 kPa	996.63 kg/m3	–	–
313.15 K, 35000 kPa	1000.06 kg/m3	–	–
313.15 K, 40000 kPa	1003.38 kg/m3	–	–
313.15 K, 45000 kPa	1006.6 kg/m3	–	–
313.15 K, 50000 kPa	1009.71 kg/m3	–	–
313.15 K, 55000 kPa	1012.75 kg/m3	–	–
313.15 K, 60000 kPa	1015.69 kg/m3	–	–
313.15 K, 65000 kPa	1018.54 kg/m3	–	–
315.65 K, 100 kPa	970.77 kg/m3	1227.7	0.613
318.15 K, 100 kPa	968.32 kg/m3 and 968.24 kg/m3	1218	0.5981
318.15 K, 2000 kPa	970.02 kg/m3	–	–
318.15 K, 5000 kPa	972.64 kg/m3	–	–
318.15 K, 7000 kPa	974.36 kg/m3	–	–
318.15 K, 10000 kPa	976.86 kg/m3	–	–
318.15 K, 15000 kPa	980.93 kg/m3	–	–
318.15 K, 20000 kPa	984.83 kg/m3	–	–
318.15 K, 25000 kPa	988.58 kg/m3	–	–
318.15 K, 30000 kPa	992.22 kg/m3	–	–
318.15 K, 35000 kPa	995.71 kg/m3	–	–
318.15 K, 40000 kPa	999.11 kg/m3	–	–
318.15 K, 45000 kPa	1002.39 kg/m3	–	–
318.15 K, 50000 kPa	1005.57 kg/m3	–	–
318.15 K, 55000 kPa	1008.66 kg/m3	–	–
318.15 K, 60000 kPa	1011.66 kg/m3	–	–
318.15 K, 65000 kPa	1014.56 kg/m3	–	–
320.65 K, 100 kPa	965.71 kg/m3	1208.3	0.584
323.15 K, 100 kPa	963.21 kg/m3 and 963.18 kg/m3	1198	0.5702
323.15 K, 2000 kPa	964.97 kg/m3	–	–
323.15 K, 5000 kPa	967.69 kg/m3	–	–
323.15 K, 7000 kPa	969.44 kg/m3	–	–
323.15 K, 10000 kPa	972.03 kg/m3	–	–
323.15 K, 15000 kPa	976.2 kg/m3	–	–
323.15 K, 20000 kPa	980.22 kg/m3	–	–
323.15 K, 25000 kPa	984.06 kg/m3	–	–
323.15 K, 30000 kPa	987.78 kg/m3	–	–
323.15 K, 35000 kPa	991.35 kg/m3	–	–
323.15 K, 40000 kPa	994.81 kg/m3	–	–
323.15 K, 45000 kPa	998.17 kg/m3	–	–
323.15 K, 50000 kPa	1001.41 kg/m3	–	–
323.15 K, 55000 kPa	1004.56 kg/m3	–	–
323.15 K, 60000 kPa	1007.62 kg/m3	–	–
323.15 K, 65000 kPa	1010.59 kg/m3	–	–
325.65 K, 100 kPa	960.64 kg/m3	1188.3	0.5566
328.15 K, 100 kPa	958.12 kg/m3 and 958.1 kg/m3	1179.1	0.5437
328.15 K, 2000 kPa	959.94 kg/m3	–	–
328.15 K, 5000 kPa	962.71 kg/m3	–	–
328.15 K, 7000 kPa	964.53 kg/m3	–	–
328.15 K, 10000 kPa	967.18 kg/m3	–	–
328.15 K, 15000 kPa	971.45 kg/m3	–	–
328.15 K, 20000 kPa	975.56 kg/m3	–	–
328.15 K, 25000 kPa	979.5 kg/m3	–	–
328.15 K, 30000 kPa	983.31 kg/m3	–	–
328.15 K, 35000 kPa	986.98 kg/m3	–	–
328.15 K, 40000 kPa	990.51 kg/m3	–	–
328.15 K, 45000 kPa	993.94 kg/m3	–	–
328.15 K, 50000 kPa	997.24 kg/m3	–	–
328.15 K, 55000 kPa	1000.47 kg/m3	–	–
328.15 K, 60000 kPa	1003.58 kg/m3	–	–
328.15 K, 65000 kPa	1006.6 kg/m3	–	–
330.65 K, 100 kPa	955.55 kg/m3	1168.7	0.5313
333.15 K, 100 kPa	952.99 kg/m3 and 953 kg/m3	1159.1	0.519
333.15 K, 2000 kPa	954.85 kg/m3	–	–
333.15 K, 5000 kPa	957.72 kg/m3	–	–
333.15 K, 7000 kPa	959.58 kg/m3	–	–
333.15 K, 10000 kPa	962.31 kg/m3	–	–
333.15 K, 15000 kPa	966.72 kg/m3	–	–
333.15 K, 20000 kPa	970.93 kg/m3	–	–
333.15 K, 25000 kPa	974.97 kg/m3	–	–
333.15 K, 30000 kPa	978.86 kg/m3	–	–
333.15 K, 35000 kPa	982.61 kg/m3	–	–
333.15 K, 40000 kPa	986.22 kg/m3	–	–
333.15 K, 45000 kPa	989.73 kg/m3	–	–
333.15 K, 50000 kPa	993.09 kg/m3	–	–
333.15 K, 55000 kPa	996.39 kg/m3	–	–
333.15 K, 60000 kPa	999.56 kg/m3	–	–
333.15 K, 65000 kPa	1002.62 kg/m3	–	–
335.65 K, 100 kPa	950.44 kg/m3	1149.9	0.5072
338.15 K, 100 kPa	947.86 kg/m3 and 947.89 kg/m3	1140.3	0.4965
338.15 K, 2000 kPa	949.78 kg/m3	–	–
338.15 K, 5000 kPa	952.72 kg/m3	–	–
338.15 K, 7000 kPa	954.65 kg/m3	–	–
338.15 K, 10000 kPa	957.46 kg/m3	–	–
338.15 K, 15000 kPa	961.97 kg/m3	–	–
338.15 K, 20000 kPa	966.32 kg/m3	–	–
338.15 K, 25000 kPa	970.44 kg/m3	–	–
338.15 K, 30000 kPa	974.41 kg/m3	–	–
338.15 K, 35000 kPa	978.26 kg/m3	–	–
338.15 K, 40000 kPa	981.96 kg/m3	–	–
338.15 K, 45000 kPa	985.53 kg/m3	–	–
338.15 K, 50000 kPa	988.98 kg/m3	–	–
338.15 K, 55000 kPa	992.31 kg/m3	–	–
338.15 K, 60000 kPa	995.56 kg/m3	–	–
338.15 K, 65000 kPa	998.71 kg/m3	–	–

Details	surface tension liquid-gas [mN/m]	vapor or sublimation pressure [kPa]
315.55 K	–	3.01
315.65 K	28.16	–
318.15 K	27.84	–
320.65 K	27.54	–
321.73 K	–	4.095
323.15 K	27.27	–
325.65 K	26.93	–
326.03 K	–	5.05
328.15 K	26.69	–
330.65 K	26.36	–
330.78 K	–	6.285
333.15 K	26.03	–
335.65 K	25.74	–
336.67 K	–	8.17
338.15 K	25.45	–
342 K	–	10.22
346.57 K	–	12.34
351.71 K	–	15.14
356.68 K	–	18.34
360.83 K	–	21.48
365.1 K	–	24.99
370.4 K	–	30.07
374.16 K	–	34.19
379.56 K	–	40.88
382.77 K	–	45.27
387.16 K	–	51.94
390.75 K	–	57.93
394.79 K	–	65.36
397.67 K	–	71.07
401.74 K	–	79.78
404.64 K	–	86.5
406.64 K	–	91.35
409.15 K	–	97.8
410.46 K	–	101.33
